Values joined by “and” are separate entries in the source; they are usually repeats but may differ in a detail not shown here. Identical values can stand only once. Like-named read-outs stand apart in the source and are kept apart here.
Columns and labels:
Type in all cases: cell-based
DOTC24510 cells = experiment: Cell proliferation assay (Incucyte growth inhibition); details: three replicates
Description: (§1) Per cent confluence relative to a non-treated control was used to evaluate growth inhibition induced by test compounds. […] (https://synergyfinder.fimm.fi).

NUGC3 cells = experiment: as above; details: three replicates
Description: as §1

SUM149PT cells = experiment: as above; details: three replicates
Description: as §1

SNU8 cells = experiment: as above; details: three replicates
Description: as §1

[1] = system: RPE1-hTERT TP53-/- Cas9 CCNE1-high cells; experiment: as above
Description: as §1

OVCAR3 cells = experiment: as above; details: three replicates
Description: as §1

[2] = system: RPE1-hTERT TP53-/- Cas9 parental cells; experiment: as above
Description: as §1

TOV112D cells = experiment: as above; details: three replicates
Description: as §1

COV362 cells = experiment: as above; details: COV362, growth inhibition, three replicates
Description: as §1

KYSE30 cells = experiment: as above; details: three replicates
Description: as §1

CDK1 = experiment: Immune complex histone H1 kinase assay, IP-CDK1, FT282 CCNE1-high cells; details: 24 h; for 32P-labelled histone H1 band intensity, IP-CDK1 kinase assay: 0 nM = 1
Protocol: (§2) Protein concentration was determined by Bradford assay (Thermo Fisher Scientific cat. no. 1856209). For immunoprecipitation of kinases, 200 μg of extract was diluted in 750 μl EBN buffer and 10 μg of CDK1 or CDK2 primary antibody agarose bead conjugates were added to the extract and rotated at 4 °C overnight. Immunoprecipitates were pelleted by centrifugation at 2,500g at 4 °C for 5 min and washed 2× in 750 μl EBN followed by 1 ml EB (80 mM β-glycerol phosphate, 15 mM MgCl2, 20 mM EGTA, 1 mg ml^−1 ovalbumin). After the final wash, the immunoprecipitates were resuspended in 500 μl EB and split into two samples. One sample was used for immunoblot analysis and the other used for kinase assays. Following removal of the final wash, immunoprecipitates were resuspended in 11 μl histone H1 kinase assay buffer (80 mM β-glycerol phosphate, 15 mM MgCl2, 20 mM EGTA, 1 mg ml^−1 ovalbumin, 10 mM DTT, 0.15 μg μl^−1 histone H1 (Sigma-Aldrich, cat. no. H1917), 22 μM ATP, 0.05 μCi μl^−1 γ^32P-ATP (Perkin Elmer NEG502A250UC), pH 7.3) and incubated at room temperature for 30 min. Reactions were quenched by addition of 5 μl 6× sample buffer (60% glycerol, 6% SDS, 0.03% bromophenol blue, 1,500 mM Tris-Cl pH 6.8, 60 mM DTT) and resolved by SDS–PAGE. Gels were exposed to a phosphor imaging screen for 1–2 d and imaged using a Typhoon FLA 9500 (GE Healthcare Life Sciences). 32P-H1 band intensity was quantified using ImageJ v2.0.0.

HCC1569 cells = experiment: Cell proliferation assay (Incucyte growth inhibition, synergy); details: three replicates
Description: as §1

CDK2 = experiment: Immune complex histone H1 kinase assay, IP-CDK2, FT282 CCNE1-high cells; details: 24 h
Protocol: as §2, with “Gels were exposed to a phosphor imaging screen for 1–2 d and imaged using a Typhoon FLA 9500 (GE Healthcare Life Sciences).” left out

C=CCn1c(=O)c2cnc(Nc3ccc(N4CCN(C)CC4)cc3)nc2n1-c1cccc(C(C)(C)O)n1 [AZD-1775]
EC50 (DOTC24510 cells; Homo sapiens, DoTc2-4510, growth inhibition): 38 nM | EC50 (DOTC24510 cells; growth inhibition): 42 nM and 55 nM | EC50 (NUGC3 cells; Homo sapiens, NUGC-3, growth inhibition): 0.000212 mM | EC50 (NUGC3 cells; growth inhibition): 0.000239 mM | EC50 (SUM149PT cells; Homo sapiens): 0.000211 mM | EC50 (SUM149PT cells): 0.000232 mM and 0.000196 mM | EC50 (SNU8 cells): 98 nM and 114 nM and 97 nM | EC50 ([1]; Homo sapiens, RPE-1, read-out: RP-6306 EC50 (mM) RPE1 CCNE1 (C2), growth inhibition, three replicates): 0.000113 mM | EC50 ([1]; read-out: RP-6306 EC50 (mM) RPE1 CCNE1 (C2), growth inhibition, three replicates): 0.00015 mM and 0.000111 mM | EC50 (OVCAR3 cells; Homo sapiens, OVCAR-3, growth inhibition): 94 nM | EC50 (OVCAR3 cells; growth inhibition): 78 nM and 98 nM | EC50 ([2]; Homo sapiens, RPE-1, read-out: RP-6306 EC50 (mM) RPE1 WT, growth inhibition, three replicates): 0.000172 mM | EC50 ([2]; read-out: RP-6306 EC50 (mM) RPE1 WT, growth inhibition, three replicates): 0.000159 mM and 0.000154 mM | EC50 (TOV112D cells; Homo sapiens): 0.000444 mM | EC50 (TOV112D cells): 0.00039 mM and 0.000454 mM | EC50 (COV362 cells): 49 nM | EC50 (KYSE30 cells; Homo sapiens, KYSE-30, growth inhibition): 0.000437 mM | EC50 (KYSE30 cells; growth inhibition): 0.000482 mM and 0.000541 mM | 32P-labelled histone H1 band intensity, IP-CDK1 kinase assay (CDK1; AZD-1775 250 nM): 1.298 and 1.203 and 0.7824 | 32P-labelled histone H1 band intensity, IP-CDK1 kinase assay (CDK1; AZD-1775 500 nM): 1.804 and 1.271 and 1.266 | 32P-labelled histone H1 band intensity, IP-CDK1 kinase assay (CDK1; AZD-1775 1000 nM): 2.54 and 1.785 and 1.69 | CDK1 kinase activity (CDK1; FT282 CCNE1-high cells): activation of both kinases | EC50 (HCC1569 cells; Homo sapiens, HCC1569, growth inhibition): 54 nM | EC50 (HCC1569 cells; growth inhibition): 51 nM and 56 nM | CDK2 kinase activity (CDK2): activation of both kinases
